Measured values reported in US7371766B2, “Curcumin analogs with anti-tumor and anti-angiogenic properties” (Emory University, priority 1999, dated 2008).

Experiments:
[1] = tested on: CCRF-CEM; conditions: for GI50: read-out: Median Growth Inhibitory Concentration (GI50), Leukemia, 48 hours
[2] = tested on: HL-60 (TB); conditions: for GI50: read-out: Median Growth Inhibitory Concentration (GI50), Leukemia, 48 hours
[3] = tested on: SR; conditions: for GI50: read-out: Median Growth Inhibitory Concentration (GI50), Leukemia, 48 hours
[4] = tested on: EKVX; conditions: for GI50: read-out: Median Growth Inhibitory Concentration (GI50), Non-Small Cell Lung Cancer, 48 hours
[5] = tested on: HOP-92; conditions: 48 hours; for GI50: read-out: Median Growth Inhibitory Concentration (GI50), HOP-92, Non-Small Cell Lung Cancer
[6] = tested on: NCI-H23; conditions: 48 hours; for GI50: read-out: Median Growth Inhibitory Concentration (GI50), NCI-H23, Non-Small Cell Lung Cancer
[7] = tested on: NCI-H460; conditions: 48 hours; for GI50: read-out: Median Growth Inhibitory Concentration (GI50), NCI-H460, Non-Small Cell Lung Cancer
[8] = tested on: NCI-H522; conditions: 48 hours; for GI50: read-out: Median Growth Inhibitory Concentration (GI50), NCI-H522, Non-Small Cell Lung Cancer
[9] = tested on: COLO 205; conditions: 48 hours; for GI50: read-out: Median Growth Inhibitory Concentration (GI50), COLO 205, Colon Cancer
[10] = tested on: HT29; conditions: 48 hours; for GI50: read-out: Median Growth Inhibitory Concentration (GI50), HT29, Colon Cancer
[11] = tested on: SW-620; conditions: 48 hours; for GI50: read-out: Median Growth Inhibitory Concentration (GI50), SW-620, Colon Cancer
[12] = tested on: SF-268; conditions: 48 hours; for GI50: read-out: Median Growth Inhibitory Concentration (GI50), SF-268, CNS Cancer
[13] = tested on: SF-539; conditions: 48 hours; for GI50: read-out: Median Growth Inhibitory Concentration (GI50), SF-539, CNS Cancer
[14] = tested on: SNB-75; conditions: 48 hours; for GI50: read-out: Median Growth Inhibitory Concentration (GI50), SNB-75, CNS Cancer
[15] = tested on: U251; conditions: 48 hours; for GI50: read-out: Median Growth Inhibitory Concentration (GI50), U251, CNS Cancer
[16] = tested on: M14; conditions: 48 hours; for GI50: read-out: Median Growth Inhibitory Concentration (GI50), M14, Melanoma
[17] = tested on: SK-MEL-2; conditions: 48 hours; for GI50: read-out: Median Growth Inhibitory Concentration (GI50), SK-MEL-2, Melanoma
[18] = tested on: SK-MEL-28; conditions: 48 hours; for GI50: read-out: Median Growth Inhibitory Concentration (GI50), SK-MEL-28, Melanoma
[19] = tested on: IGROV1; conditions: 48 hours; for GI50: read-out: Median Growth Inhibitory Concentration (GI50), IGROV1, Ovarian Cancer
[20] = tested on: OVCAR-3; conditions: 48 hours; for GI50: read-out: Median Growth Inhibitory Concentration (GI50), OVCAR-3, Ovarian Cancer
[21] = tested on: OVCAR-8; conditions: 48 hours; for GI50: read-out: Median Growth Inhibitory Concentration (GI50), OVCAR-8, Ovarian Cancer
[22] = tested on: SK-OV-3; conditions: 48 hours; for GI50: read-out: Median Growth Inhibitory Concentration (GI50), SK-OV-3, Ovarian Cancer
[23] = tested on: A498; conditions: 48 hours; for GI50: read-out: Median Growth Inhibitory Concentration (GI50), A498, Renal Cancer
[24] = tested on: ACHN; conditions: for GI50: read-out: Median Growth Inhibitory Concentration (GI50), Renal Cancer, 48 hours
[25] = tested on: CAKI-1; conditions: 48 hours; for GI50: read-out: Median Growth Inhibitory Concentration (GI50), CAKI-1, Renal Cancer
[26] = tested on: RXF 393; conditions: 48 hours; for GI50: read-out: Median Growth Inhibitory Concentration (GI50), RXF 393, Renal Cancer
[27] = tested on: TK-10; conditions: 48 hours; for GI50: read-out: Median Growth Inhibitory Concentration (GI50), TK-10, Renal Cancer
[28] = tested on: UO-31; conditions: 48 hours; for GI50: read-out: Median Growth Inhibitory Concentration (GI50), UO-31, Renal Cancer
[29] = tested on: DU-145; conditions: 48 hours; for GI50: read-out: Median Growth Inhibitory Concentration (GI50), DU-145, Prostate Cancer
[30] = tested on: NCI/ADR-RES; conditions: for GI50: read-out: Median Growth Inhibitory Concentration (GI50), Breast Cancer, 48 hours
[31] = tested on: MDA-MB-231; conditions: 48 hours; for GI50: read-out: Median Growth Inhibitory Concentration (GI50), MDA-MB-231, Breast Cancer
[32] = tested on: HS 578T; conditions: for GI50: read-out: Median Growth Inhibitory Concentration (GI50), Breast Cancer, 48 hours
[33] = read-out: Median Lethal Concentration (LC50), Leukemia, 48 hours, SRB assay
[34] = read-out: Median Lethal Concentration (LC50), Breast Cancer, 48 hours, SRB assay

Compound: C(=C\c1ccccc1)/S/C=C/c1ccccc1 [EF15]
- GI50 [1]: 41.5 µM
- GI50 [2]: 49.9 µM
- GI50 [3]: 52 µM
- GI50 [4]: 64 µM
- GI50 [5]: > 100 µM
- GI50 [6]: > 100 µM
- GI50 [7]: > 100 µM
- GI50 [8]: 69.9 µM
- GI50 [9]: > 100 µM
- GI50 [10]: 46.1 µM
- GI50 [11]: 79.8 µM
- GI50 [12]: > 100 µM
- GI50 [13]: > 100 µM
- GI50 [14]: 98.8 µM
- GI50 [15]: 95.1 µM
- GI50 [16]: > 100 µM
- GI50 [17]: 31.7 µM
- GI50 [18]: 83.7 µM
- GI50 [19]: > 100 µM
- GI50 [20]: > 100 µM
- GI50 [21]: > 100 µM
- GI50 [22]: > 100 µM
- GI50 [23]: 23.3 µM
- GI50 [24]: > 100 µM
- GI50 [25]: > 100 µM
- GI50 [26]: 23.5 µM
- GI50 [27]: > 100 µM
- GI50 [28]: 96.8 µM
- GI50 [29]: > 100 µM
- GI50 [30]: > 100 µM
- GI50 [31]: > 100 µM
- GI50 [32]: > 100 µM

Compound: O=C1C(=Cc2ccccc2O)COCC1=Cc1ccccc1O [EF25, 3,5-Bis(2-hyrdoxybenzylidene)tetrahydro4-H-pyran4-one]
- GI50 [1]: 0.3 µM
- CC50 [1, 33]: > 100 µM
- GI50 [2]: 1.1 µM
- CC50 [2, 33]: > 100 µM
- GI50 [3]: 0.2 µM
- CC50 [3, 33]: 76.3 µM
- GI50 [4]: 1.4 µM
- CC50 ([4]; read-out: Median Lethal Concentration (LC50), Non-Small Cell Lung Cancer, 48 hours, SRB assay): 24.2 µM
- GI50 [5]: 2.4 µM
- CC50 ([5]; read-out: Median Lethal Concentration (LC50), Non-Small Cell Lung Cancer, HOP-92, SRB assay): 35.4 µM
- GI50 [6]: 1.7 µM
- CC50 ([6]; read-out: Median Lethal Concentration (LC50), Non-Small Cell Lung Cancer, NCI-H23, SRB assay): 12.9 µM
- GI50 [7]: 1.2 µM
- CC50 ([7]; read-out: Median Lethal Concentration (LC50), Non-Small Cell Lung Cancer, NCI-H460, SRB assay): 38.9 µM
- GI50 [8]: 0.9 µM
- CC50 ([8]; read-out: Median Lethal Concentration (LC50), Non-Small Cell Lung Cancer, NCI-H522, SRB assay): 14.1 µM
- GI50 [9]: 2 µM
- CC50 ([9]; read-out: Median Lethal Concentration (LC50), Colon Cancer, COLO 205, SRB assay): 33.4 µM
- GI50 [10]: 2 µM
- CC50 ([10]; read-out: Median Lethal Concentration (LC50), Colon Cancer, HT29, SRB assay): 67.5 µM
- GI50 [11]: 0.5 µM
- CC50 ([11]; read-out: Median Lethal Concentration (LC50), Colon Cancer, SW-620, SRB assay): 75.3 µM
- GI50 [12]: 1.4 µM
- CC50 ([12]; read-out: Median Lethal Concentration (LC50), CNS Cancer, SF-268, SRB assay): 43.3 µM
- GI50 [13]: 0.5 µM
- CC50 ([13]; read-out: Median Lethal Concentration (LC50), CNS Cancer, SF-539, SRB assay): 16.8 µM
- GI50 [14]: 1.8 µM
- CC50 ([14]; read-out: Median Lethal Concentration (LC50), CNS Cancer, SNB-75, SRB assay): 14 µM
- GI50 [15]: 0.7 µM
- CC50 ([15]; read-out: Median Lethal Concentration (LC50), CNS Cancer, U251, SRB assay): 5.8 µM
- GI50 [16]: 1.8 µM
- CC50 ([16]; read-out: Median Lethal Concentration (LC50), Melanoma, M14, SRB assay): 19.4 µM
- GI50 [17]: 2 µM
- CC50 ([17]; read-out: Median Lethal Concentration (LC50), Melanoma, SK-MEL-2, SRB assay): 12.6 µM
- GI50 [18]: 2.4 µM
- CC50 ([18]; read-out: Median Lethal Concentration (LC50), Melanoma, SK-MEL-28, SRB assay): 6.6 µM
- GI50 [19]: 0.8 µM
- CC50 ([19]; read-out: Median Lethal Concentration (LC50), Ovarian Cancer, IGROV1, SRB assay): 14.5 µM
- GI50 [20]: 0.9 µM
- CC50 ([20]; read-out: Median Lethal Concentration (LC50), Ovarian Cancer, OVCAR-3, SRB assay): 23.5 µM
- GI50 [21]: 0.8 µM
- CC50 ([21]; read-out: Median Lethal Concentration (LC50), Ovarian Cancer, OVCAR-8, SRB assay): 23 µM
- GI50 [22]: 2.4 µM
- CC50 ([22]; read-out: Median Lethal Concentration (LC50), Ovarian Cancer, SK-OV-3, SRB assay): 26.9 µM
- GI50 [23]: 1.3 µM
- CC50 ([23]; read-out: Median Lethal Concentration (LC50), Renal Cancer, A498, SRB assay): 6 µM
- GI50 [24]: 1.5 µM
- CC50 ([24]; read-out: Median Lethal Concentration (LC50), Renal Cancer, 48 hours, SRB assay): 18.2 µM
- GI50 [25]: 1.8 µM
- CC50 ([25]; read-out: Median Lethal Concentration (LC50), Renal Cancer, CAKI-1, SRB assay): 53.7 µM
- GI50 [26]: 0.6 µM
- CC50 ([26]; read-out: Median Lethal Concentration (LC50), Renal Cancer, RXF 393, SRB assay): 4.6 µM
- GI50 [27]: 2.2 µM
- CC50 ([27]; read-out: Median Lethal Concentration (LC50), Renal Cancer, TK-10, SRB assay): 24.6 µM
- GI50 [28]: 1.2 µM
- CC50 ([28]; read-out: Median Lethal Concentration (LC50), Renal Cancer, UO-31, SRB assay): 68.1 µM
- GI50 [29]: 1.2 µM
- CC50 ([29]; read-out: Median Lethal Concentration (LC50), Prostate Cancer, DU-145, SRB assay): 20.1 µM
- GI50 [30]: 1.6 µM
- CC50 [30, 34]: 71 µM
- GI50 [31]: 1.9 µM
- CC50 ([31]; read-out: Median Lethal Concentration (LC50), Breast Cancer, MDA-MB-231, SRB assay): 17.2 µM
- GI50 [32]: 5.1 µM
- CC50 [32, 34]: 72.3 µM
